The values below come from patent US20240294499A1, “TARGETED PROTEIN DEGRADATION USING BIFUNCTIONAL COMPOUNDS THAT BIND UBIQUITIN LIGASE AND TARGET MCL-1 PROTEIN” (Captor Therapeutics S.A., priority 2021, published 2024).

Experiment [1] concerns OPM-2 cells. Briefly: Cell viability assay (CellTiter-Glo), OPM-2. Format: cell-based. The settings on record: Homo sapiens, 24 hours incubation, 1% FBS, read-out: Average pIC50 by molecule OPM-2 (converted). The source says: The effect of various compounds of the invention on the viability of OPM-2, MV-4-11 and ARH-77 cell lines was investigated, using the CTG protocol described below.
OPM-2 and MV-4-11 cell lines are derived from multiple myeloma and acute myeloid leukaemia, respectively. Both cell lines are described in the literature as MCL-1 dependent lines, as opposed to lymphoblast-like ARH-77 cell line, which is described as independent of MCL-1 (Tron A E et al. Nat Commun. 2018; 9: 5341; Caenepeel S et al. Cancer Discov. 2018 December; 8(12):1582-1597).
Cells (OPM-2, MV-4-11 or ARH-77) were seeded on […] in a growth medium with FBS reduced to 1%. Next, compound stocks were pre-diluted in DMSO and added directly to the cells growth medium (final DMSO concentration: 0.5%). Compound concentrations used in this assay: 1/3 dilutions starting at 30 uM (9 to 12 points).
After 24 hours of incubation, cell viability was evaluated using CellTiter-Glo Luminescent Cell Viability Assay (Promega, cat #G7572). Luminescence signal was measured using a CLARIOstar Plus Multi-Mode Microplate Reader (574-590 nm).
Results were normalized to DMSO control.
(In general: In ATP-based viability assays light output follows the ATP content of the culture.)

The target of experiment [2] is MCL-1 protein (Homo sapiens, UniProt Q07820). Description: OPM-2 cells: MCL-1 protein degradation, Simple Western. The experiment is classed as cell-based. The settings on record: OPM-2 cell line, 6 h treatment, 100 nM compound, vs DMSO. Set-up: endogenous in cells; host or cells: OPM-2. Put shortly:
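OPM-2 cells in RPMI-1640 with 1% FBS treated with compounds (0.5% DMSO) for 6 h at 100 nM. Lysates analysed by automated capillary Simple Western with MCL-1 D35A5 antibody; % MCL-1 reduction versus DMSO-treated cells (0%).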

In experiment [3] the target is [MCL-1]-[compound of formula (I)]-[CRBN/DDB1] complex (Homo sapiens, UniProt Q07820+Q96SW2). Description: HTRF ternary complex assay. Format: binding. The settings on record: ternary complex formation; read-out: HTRF ternary complex Average pEC50 by molecule (converted). In short, it runs like this: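 hMcl-1 and CRBN (mix at 48 nM and 105.6 nM) with Streptavidin-Eu cryptate and anti-6×His-d2 in PPI Europium buffer with 2 mM DTT; compounds in dose-response, 0.5% DMSO. Incubated 180 min at 25° C, TR-FRET 665/620 read. Bell-shaped curve fitted by Gaussian; EC50 reported.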
For orientation: TR-FRET usually uses a lanthanide donor and a delayed reading to cut background.

Experiment [4] relates to DMS 114 cells. Briefly: Cell viability assay (CellTiter-Glo), DMS 114. Format: cell-based. The note with it: 72 hours incubation, 10% FBS. The source says:
The effect of various compounds of the invention on the viability of DMS 114 cell line was investigated, using the CTG protocol described below.
DMS 114 cell line is derived from small-cell lung cancer, which is described in the literature as MCL-1 dependent lines [Yasuda Y et al. Cell Death & Disease 2020; 11: 177].
DMS 114 cells were detached with trypsin and then resuspended in growth medium containing 10% FBS and counted. Cell suspension was then adjusted to 5×10^4 cells/ml using growth medium containing 10% FBS. Afterwards, […] were seeded on 384-well plates (50 μl). Plates were then placed in the incubator overnight until treated. Next day, compounds were added using ECHO 555 liquid handler. Compound concentrations used in this assay: 1/3 dilutions starting at 30 uM (9 to 12 points).
After 72 hours of incubation, cell viability was evaluated using CellTiter-Glo Luminescent Cell Viability Assay (Promega, cat #G7572). Luminescence signal was measured using a CLARIOstar Plus Multi-Mode Microplate Reader (574-590 nm).

The test system of experiment [5] is ARH-77 cells. Description: Cell viability assay (CellTiter-Glo), ARH-77. The settings on record: Homo sapiens, ARH-77, 24 hours incubation, 1% FBS, read-out: Average pIC50 by molecule ARH-77 (converted). The experiment is classed as cell-based. Put shortly:
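OPM-2, MV-4-11 and ARH-77 cells were grown in medium with 1% FBS and treated with compound in 1/3 dilutions from 30 uM (9–12 points, 0.5% DMSO). Viability was read by CellTiter-Glo luminescence after 24 hours and normalized to DMSO control.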

Chain of [MCL-1]-[compound of formula (I)]-[CRBN/DDB1] complex (Q07820 whole entry): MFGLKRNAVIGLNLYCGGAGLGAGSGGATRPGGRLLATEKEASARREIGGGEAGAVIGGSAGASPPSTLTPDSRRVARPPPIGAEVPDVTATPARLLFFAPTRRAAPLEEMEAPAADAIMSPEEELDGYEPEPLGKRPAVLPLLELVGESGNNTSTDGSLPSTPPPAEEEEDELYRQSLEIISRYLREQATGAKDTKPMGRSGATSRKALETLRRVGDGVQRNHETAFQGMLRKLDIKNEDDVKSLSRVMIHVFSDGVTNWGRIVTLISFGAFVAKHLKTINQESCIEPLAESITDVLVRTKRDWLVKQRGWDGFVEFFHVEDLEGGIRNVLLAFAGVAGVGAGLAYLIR
Chain of [MCL-1]-[compound of formula (I)]-[CRBN/DDB1] complex (Q96SW2 whole entry): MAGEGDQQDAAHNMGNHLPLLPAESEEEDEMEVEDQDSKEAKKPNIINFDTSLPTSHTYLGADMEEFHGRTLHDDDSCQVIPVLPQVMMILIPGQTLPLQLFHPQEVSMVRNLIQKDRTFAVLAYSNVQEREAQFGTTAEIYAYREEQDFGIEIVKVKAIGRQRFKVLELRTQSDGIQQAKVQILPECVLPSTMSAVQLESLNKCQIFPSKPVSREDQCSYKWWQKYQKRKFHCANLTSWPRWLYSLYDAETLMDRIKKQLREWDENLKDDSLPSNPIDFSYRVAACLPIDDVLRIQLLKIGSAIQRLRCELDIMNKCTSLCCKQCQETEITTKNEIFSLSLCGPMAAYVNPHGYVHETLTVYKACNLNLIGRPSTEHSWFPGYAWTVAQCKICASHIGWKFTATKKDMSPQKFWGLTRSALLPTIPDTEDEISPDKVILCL
Chain of [MCL-1]-[compound of formula (I)]-[CRBN/DDB1] complex (Q16531 whole entry partner): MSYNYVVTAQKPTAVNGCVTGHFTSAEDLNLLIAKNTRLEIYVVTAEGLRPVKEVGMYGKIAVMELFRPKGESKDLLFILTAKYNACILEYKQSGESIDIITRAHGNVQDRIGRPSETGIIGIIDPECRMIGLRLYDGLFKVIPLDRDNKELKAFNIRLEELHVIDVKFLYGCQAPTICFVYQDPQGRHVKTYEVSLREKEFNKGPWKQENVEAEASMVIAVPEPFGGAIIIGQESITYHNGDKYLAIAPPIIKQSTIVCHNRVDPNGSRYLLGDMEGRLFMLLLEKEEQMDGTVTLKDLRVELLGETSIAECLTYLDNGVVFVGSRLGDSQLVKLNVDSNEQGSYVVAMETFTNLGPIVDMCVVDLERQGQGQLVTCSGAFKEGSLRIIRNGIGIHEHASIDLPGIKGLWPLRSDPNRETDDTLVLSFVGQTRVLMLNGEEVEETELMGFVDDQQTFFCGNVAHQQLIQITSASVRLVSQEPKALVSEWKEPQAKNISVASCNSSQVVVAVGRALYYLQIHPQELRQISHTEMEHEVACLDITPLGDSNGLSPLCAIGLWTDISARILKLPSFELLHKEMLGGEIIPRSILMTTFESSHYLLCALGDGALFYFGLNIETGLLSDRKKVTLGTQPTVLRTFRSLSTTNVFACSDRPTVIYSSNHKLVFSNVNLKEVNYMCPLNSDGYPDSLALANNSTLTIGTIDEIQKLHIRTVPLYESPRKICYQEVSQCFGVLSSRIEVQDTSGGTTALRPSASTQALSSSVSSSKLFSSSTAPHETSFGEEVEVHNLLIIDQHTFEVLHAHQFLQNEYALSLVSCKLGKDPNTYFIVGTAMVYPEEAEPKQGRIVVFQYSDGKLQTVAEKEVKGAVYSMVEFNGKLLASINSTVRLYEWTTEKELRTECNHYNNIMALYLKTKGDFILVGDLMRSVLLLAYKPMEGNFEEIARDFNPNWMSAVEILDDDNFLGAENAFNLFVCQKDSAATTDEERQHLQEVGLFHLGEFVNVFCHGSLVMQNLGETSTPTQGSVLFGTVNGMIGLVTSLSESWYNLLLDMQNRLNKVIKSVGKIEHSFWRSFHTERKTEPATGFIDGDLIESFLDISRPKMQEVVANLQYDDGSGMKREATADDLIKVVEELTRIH
Chain of MCL-1 protein (Q07820 whole entry): as the sequence (Q07820 whole entry) above

Turning to `Cc1nn(C)c(C)c1-c1c(Cl)ccc2c(CCCOc3cccc4ccccc34)c(C(=O)O)n(CCN3CCN(C(=O)COc4cccc5c4C(=O)N(C4CCC(=O)NC4=O)C5=O)CC3)c12` (stereo not shown) [Compound 204, 6-chloro-1-(2-(4-(2-((2-(2,6-dioxopiperidin-3-yl)-1,3-dioxoisoindolin-4-yl)oxy)acetyl)piperazin-1-yl)ethyl)-3-(3-(naphthalen-1-yloxy)propyl)-7-(1,3,5-trimethyl-1H-pyrazol-4-yl)-1H-indole-2-carboxylic acid], the IC50 in experiment [1] is no more than 1000 nM. Besides, the “Simple Western, % of protein reduction” value in experiment [2] is no less than 40%.
For `Cc1nn(C)c(C)c1-c1c(F)ccc2c(CCCOc3cccc4cc(F)ccc34)c(C(=O)O)n(CCN3CCN(C(=O)COc4cccc5c4C(=O)N(C4CCC(=O)NC4=O)C5=O)CC3)c12` (stereo not shown) [Compound 215, 1-{2-[4-(2-{[2-(2,6-dioxopiperidin-3-yl)-1,3-dioxo-2,3-dihydro-1H-isoindol-4-yl]oxy}acetyl)piperazin-1-yl]ethyl}-6-fluoro-3-{3-[(6-fluoronaphthalen-1-yl)oxy]propyl}-7-(1,3,5-trimethyl-1H-pyrazol-4-yl)-1H-indole-2-carboxylic acid], in experiment [1], the IC50 is no more than 1000 nM. In experiment [2], the “Simple Western, % of protein reduction” value is given as no less than 20%.
`Cc1nn(C)c(C)c1-c1c(Cl)ccc2c(CCCOc3cccc4cc(F)ccc34)c(C(=O)O)n(CCN3CCN(C(=O)COc4cccc5c4CN(C4CCC(=O)NC4=O)C5=O)CC3)c12` (stereo not shown) [Compound 220, 6-chloro-1-{2-[4-(2-{[2-(2,6-dioxopiperidin-3-yl)-1-oxo-2,3-dihydro-1H-isoindol-4-yl]oxy}acetyl)piperazin-1-yl]ethyl}-3-{3-[(6-fluoronaphthalen-1-yl)oxy]propyl}-7-(1,3,5-trimethyl-1H-pyrazol-4-yl)-1H-indole-2-carboxylic acid]: in experiment [3], the EC50 was less than 100 nM. In addition, the “Average pIC50 by molecule DMS 114” value in experiment [4] is reported as no less than 6.5. Further, the IC50 in experiment [5] is greater than 10000 nM.
On to `Cc1nn(C)c(C)c1-c1c(Cl)ccc2c(CCCOc3cccc4cc(F)ccc34)c(C(=O)O)n(CCN3CCN(C(=O)Cn4c(C)nc5c(C(=O)NC6CCC(=O)NC6=O)cccc54)CC3)c12` (stereo not shown) [Compound 268, 6-chloro-1-{2-[4-(2-{4-[(2,6-dioxopiperidin-3-yl)carbamoyl]-2-methyl-1H-1,3-benzodiazol-1-yl}acetyl)piperazin-1-yl]ethyl}-3-{3-[(6-fluoronaphthalen-1-yl)oxy]propyl}-7-(1,3,5-trimethyl-1H-pyrazol-4-yl)-1H-indole-2-carboxylic acid], for which the EC50 in experiment [3] is less than 10 nM.
On to `Cc1nn2c(c1-c1c(Cl)ccc3c(CCCOc4cccc5cc(F)ccc45)c(C(=O)O)n(CCN4CCN(C(=O)COc5cccc6c5CN(C5CCC(=O)NC5=O)C6=O)CC4)c13)COCC2` (stereo not shown) [Compound 346, 6-Chloro-1-(2-(4-(2-((2-(2,6-dioxopiperidin-3-yl)-1-oxoisoindolin-4-yl)oxy)acetyl)piperazin-1-yl)ethyl)-3-(3-((6-fluoronaphthalen-1-yl)oxy)propyl)-7-(2-methyl-6,7-dihydro-4H-pyrazolo[5,1-c][1,4]oxazin-3-yl)-1H-indole-2-carboxylic acid], for which the IC50 is no more than 3160 nM in experiment [4] (Homo sapiens, DMS-114, 72 h, read-out: Average pIC50 by molecule DMS 114 (converted)) and greater than 10000 nM in experiment [5].
